Results: ChEMBL document CHEMBL4507319 (2021)

Key:
[1] = biological target: Calcium/calmodulin-dependent protein kinase kinase 2 (Homo sapiens) (UniProt Q96RR4); test: CaMKK2(h) Eurofins kinase panel; settings: Compound concentration 1.0 uM
[2] = biological target: T1, Tyrosine-protein kinase ITK/TSK (Homo sapiens) (UniProt Q08881); test: Itk(h) Eurofins kinase panel; settings: Compound concentration 1.0 uM
T1 sequence (whole entry): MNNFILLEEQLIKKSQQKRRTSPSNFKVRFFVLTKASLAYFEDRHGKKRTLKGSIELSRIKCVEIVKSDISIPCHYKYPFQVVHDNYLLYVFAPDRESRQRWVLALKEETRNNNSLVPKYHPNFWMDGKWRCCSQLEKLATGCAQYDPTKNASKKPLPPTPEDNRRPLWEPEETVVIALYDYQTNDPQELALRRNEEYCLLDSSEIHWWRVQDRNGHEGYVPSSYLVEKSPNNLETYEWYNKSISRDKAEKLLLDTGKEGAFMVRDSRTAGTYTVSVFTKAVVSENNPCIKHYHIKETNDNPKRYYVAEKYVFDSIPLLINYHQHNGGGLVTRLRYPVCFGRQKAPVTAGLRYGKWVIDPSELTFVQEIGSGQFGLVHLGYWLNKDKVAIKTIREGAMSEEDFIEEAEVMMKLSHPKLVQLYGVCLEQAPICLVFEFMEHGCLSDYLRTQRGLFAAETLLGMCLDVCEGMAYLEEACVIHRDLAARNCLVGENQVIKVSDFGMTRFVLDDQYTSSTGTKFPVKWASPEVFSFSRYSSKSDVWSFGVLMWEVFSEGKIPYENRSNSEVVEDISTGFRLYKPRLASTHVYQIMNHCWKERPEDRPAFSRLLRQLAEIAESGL

[3] = biological target: Serine/threonine-protein kinase NIM1 (Homo sapiens) (UniProt Q8IY84); test: NIM1(h) Eurofins kinase panel; settings: Compound concentration 1.0 uM
Serine/threonine-protein kinase NIM1 (Homo sapiens), sequence (Q8IY84 whole entry): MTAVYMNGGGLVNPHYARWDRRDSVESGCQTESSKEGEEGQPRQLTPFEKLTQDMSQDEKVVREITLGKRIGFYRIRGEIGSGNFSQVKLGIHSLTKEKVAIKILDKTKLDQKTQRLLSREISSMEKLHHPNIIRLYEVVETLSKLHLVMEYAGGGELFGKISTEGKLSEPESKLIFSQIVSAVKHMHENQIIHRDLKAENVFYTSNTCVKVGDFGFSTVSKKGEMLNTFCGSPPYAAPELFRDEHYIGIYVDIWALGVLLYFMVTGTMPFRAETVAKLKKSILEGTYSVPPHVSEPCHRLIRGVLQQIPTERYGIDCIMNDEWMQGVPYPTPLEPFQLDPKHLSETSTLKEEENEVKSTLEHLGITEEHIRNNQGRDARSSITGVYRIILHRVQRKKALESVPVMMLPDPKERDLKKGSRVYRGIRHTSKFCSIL

[4] = biological target: Mitogen-activated protein kinase 11 (Homo sapiens) (UniProt Q15759); test: SAPK2b(h) Eurofins kinase panel; settings: Compound concentration 1.0 uM
NCI-H520 = test: NCI- H520 cell line Proliferation assay; format: functional, Homo sapiens; settings: time 3 day
[5] = tested on: Tyrosine-protein kinase ABL1 (Homo sapiens), P00519 [E255K]; settings: Compound concentration 1000.0 nM
[6] = biological target: Atypical kinase COQ8A, mitochondrial (Homo sapiens) (UniProt Q8NI60); settings: Compound concentration 1000.0 nM
Atypical kinase COQ8A, mitochondrial (Homo sapiens), sequence (Q8NI60 163-647 limits assumed): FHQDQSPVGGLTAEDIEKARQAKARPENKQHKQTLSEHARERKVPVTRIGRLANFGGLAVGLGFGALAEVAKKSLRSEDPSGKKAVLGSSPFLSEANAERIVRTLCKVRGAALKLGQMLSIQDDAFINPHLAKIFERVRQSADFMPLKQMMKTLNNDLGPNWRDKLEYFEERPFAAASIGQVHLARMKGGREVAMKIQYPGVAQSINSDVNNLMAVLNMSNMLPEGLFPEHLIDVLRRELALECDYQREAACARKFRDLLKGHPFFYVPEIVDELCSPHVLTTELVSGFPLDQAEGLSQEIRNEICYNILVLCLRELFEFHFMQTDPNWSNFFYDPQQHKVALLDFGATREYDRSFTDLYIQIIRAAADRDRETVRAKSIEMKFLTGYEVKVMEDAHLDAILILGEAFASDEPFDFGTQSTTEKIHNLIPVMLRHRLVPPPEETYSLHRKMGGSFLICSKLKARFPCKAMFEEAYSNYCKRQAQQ

[7] = biological target: Vascular endothelial growth factor receptor 1 (Homo sapiens) (UniProt P17948); settings: Compound concentration 1000.0 nM
Vascular endothelial growth factor receptor 1 (Homo sapiens), sequence (P17948 whole entry): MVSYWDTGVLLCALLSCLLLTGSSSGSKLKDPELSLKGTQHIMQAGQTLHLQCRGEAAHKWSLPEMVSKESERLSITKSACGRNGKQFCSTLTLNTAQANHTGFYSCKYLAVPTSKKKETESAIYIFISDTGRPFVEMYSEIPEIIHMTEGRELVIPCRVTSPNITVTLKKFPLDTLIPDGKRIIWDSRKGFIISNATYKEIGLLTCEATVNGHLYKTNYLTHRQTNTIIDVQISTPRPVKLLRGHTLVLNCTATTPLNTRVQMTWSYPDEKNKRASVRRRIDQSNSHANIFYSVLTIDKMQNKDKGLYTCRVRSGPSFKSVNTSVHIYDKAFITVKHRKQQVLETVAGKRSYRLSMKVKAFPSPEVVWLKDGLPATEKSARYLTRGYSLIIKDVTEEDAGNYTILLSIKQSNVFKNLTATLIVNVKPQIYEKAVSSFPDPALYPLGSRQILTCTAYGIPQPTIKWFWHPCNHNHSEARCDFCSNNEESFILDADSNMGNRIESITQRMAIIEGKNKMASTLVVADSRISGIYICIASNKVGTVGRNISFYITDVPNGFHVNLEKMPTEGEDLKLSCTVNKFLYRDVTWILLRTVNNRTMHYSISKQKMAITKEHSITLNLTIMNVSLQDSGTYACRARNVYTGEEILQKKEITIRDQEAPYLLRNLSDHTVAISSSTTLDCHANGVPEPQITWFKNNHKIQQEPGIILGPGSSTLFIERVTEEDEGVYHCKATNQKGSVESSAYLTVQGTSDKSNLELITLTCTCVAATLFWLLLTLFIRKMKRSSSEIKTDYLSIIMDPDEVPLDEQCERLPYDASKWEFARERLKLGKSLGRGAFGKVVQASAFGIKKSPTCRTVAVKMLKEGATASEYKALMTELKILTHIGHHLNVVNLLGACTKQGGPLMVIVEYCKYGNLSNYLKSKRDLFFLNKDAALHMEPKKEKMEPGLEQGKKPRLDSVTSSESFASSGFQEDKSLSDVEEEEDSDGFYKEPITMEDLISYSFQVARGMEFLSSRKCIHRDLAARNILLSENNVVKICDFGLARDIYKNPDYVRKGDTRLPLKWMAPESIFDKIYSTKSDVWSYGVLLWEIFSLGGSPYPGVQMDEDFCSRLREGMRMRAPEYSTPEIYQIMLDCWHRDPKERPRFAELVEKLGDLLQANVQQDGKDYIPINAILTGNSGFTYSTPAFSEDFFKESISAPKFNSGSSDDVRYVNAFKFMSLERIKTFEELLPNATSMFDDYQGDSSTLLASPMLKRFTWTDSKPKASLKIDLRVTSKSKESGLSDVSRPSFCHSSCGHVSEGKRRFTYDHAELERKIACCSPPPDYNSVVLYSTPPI

[8] = biological target: T2, Serine/threonine-protein kinase haspin (Homo sapiens) (UniProt Q8TF76); settings: Compound concentration 1000.0 nM
T2 sequence (whole entry): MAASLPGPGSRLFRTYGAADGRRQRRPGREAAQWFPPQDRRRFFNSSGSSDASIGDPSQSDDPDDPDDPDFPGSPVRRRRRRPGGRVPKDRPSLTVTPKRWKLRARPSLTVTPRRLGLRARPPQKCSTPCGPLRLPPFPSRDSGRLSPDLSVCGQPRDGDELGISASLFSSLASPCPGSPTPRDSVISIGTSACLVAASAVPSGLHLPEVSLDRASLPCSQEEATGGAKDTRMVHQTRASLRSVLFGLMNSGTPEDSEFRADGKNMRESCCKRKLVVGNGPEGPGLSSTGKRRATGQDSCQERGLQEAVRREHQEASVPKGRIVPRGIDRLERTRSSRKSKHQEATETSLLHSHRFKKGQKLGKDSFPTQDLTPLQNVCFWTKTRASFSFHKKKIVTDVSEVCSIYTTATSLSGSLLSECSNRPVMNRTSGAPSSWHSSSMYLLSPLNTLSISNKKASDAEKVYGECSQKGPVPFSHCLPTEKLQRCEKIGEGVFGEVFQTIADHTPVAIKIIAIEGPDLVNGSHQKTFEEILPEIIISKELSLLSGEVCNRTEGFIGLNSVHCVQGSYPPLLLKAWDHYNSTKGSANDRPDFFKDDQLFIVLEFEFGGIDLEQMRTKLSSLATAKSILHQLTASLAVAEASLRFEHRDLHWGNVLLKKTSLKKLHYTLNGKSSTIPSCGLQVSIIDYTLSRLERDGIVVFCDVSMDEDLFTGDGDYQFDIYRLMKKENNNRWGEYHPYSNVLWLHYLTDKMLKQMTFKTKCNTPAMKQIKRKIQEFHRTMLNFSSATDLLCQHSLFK

[9] = biological target: Serine/threonine-protein kinase PAK 4 (Homo sapiens) (UniProt O96013); settings: Compound concentration 1000.0 nM
Serine/threonine-protein kinase PAK 4 (Homo sapiens), sequence (O96013 whole entry, looked up): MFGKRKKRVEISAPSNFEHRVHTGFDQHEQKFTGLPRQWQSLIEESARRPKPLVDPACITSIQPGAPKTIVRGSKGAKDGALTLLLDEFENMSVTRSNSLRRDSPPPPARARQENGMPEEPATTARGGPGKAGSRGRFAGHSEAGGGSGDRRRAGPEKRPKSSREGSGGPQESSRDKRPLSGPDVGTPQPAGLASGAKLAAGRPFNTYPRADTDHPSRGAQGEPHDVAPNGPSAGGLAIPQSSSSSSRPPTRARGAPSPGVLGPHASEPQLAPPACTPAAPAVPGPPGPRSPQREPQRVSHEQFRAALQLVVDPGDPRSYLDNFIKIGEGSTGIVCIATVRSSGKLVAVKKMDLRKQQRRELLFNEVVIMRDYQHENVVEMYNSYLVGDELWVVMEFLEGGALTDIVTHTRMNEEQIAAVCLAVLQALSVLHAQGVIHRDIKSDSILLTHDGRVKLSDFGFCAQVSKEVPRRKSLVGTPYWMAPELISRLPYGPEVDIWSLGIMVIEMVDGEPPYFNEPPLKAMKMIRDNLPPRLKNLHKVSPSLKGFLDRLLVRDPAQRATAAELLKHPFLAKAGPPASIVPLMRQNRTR

[10] = biological target: Cyclin-dependent kinase 14 (Homo sapiens) (UniProt O94921); settings: Compound concentration 1000.0 nM
Cyclin-dependent kinase 14 (Homo sapiens), sequence (O94921 whole entry): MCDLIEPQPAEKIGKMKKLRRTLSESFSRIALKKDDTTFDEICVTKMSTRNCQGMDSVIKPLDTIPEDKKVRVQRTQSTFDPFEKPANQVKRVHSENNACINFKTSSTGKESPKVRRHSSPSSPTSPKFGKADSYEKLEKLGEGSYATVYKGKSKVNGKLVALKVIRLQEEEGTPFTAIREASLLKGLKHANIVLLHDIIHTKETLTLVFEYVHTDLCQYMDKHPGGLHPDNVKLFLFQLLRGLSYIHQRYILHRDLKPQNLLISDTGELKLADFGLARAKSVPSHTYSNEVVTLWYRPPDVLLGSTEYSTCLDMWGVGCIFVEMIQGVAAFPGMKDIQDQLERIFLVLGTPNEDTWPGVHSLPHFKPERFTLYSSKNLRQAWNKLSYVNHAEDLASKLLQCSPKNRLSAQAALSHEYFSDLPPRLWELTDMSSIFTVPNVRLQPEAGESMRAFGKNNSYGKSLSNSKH

[11] = tested on: Proto-oncogene tyrosine-protein kinase receptor Ret (Homo sapiens), P07949 [V804L]; settings: Compound concentration 1000.0 nM
Proto-oncogene tyrosine-protein kinase receptor Ret (Homo sapiens), P07949 [V804L], sequence (P07949 whole entry V804L): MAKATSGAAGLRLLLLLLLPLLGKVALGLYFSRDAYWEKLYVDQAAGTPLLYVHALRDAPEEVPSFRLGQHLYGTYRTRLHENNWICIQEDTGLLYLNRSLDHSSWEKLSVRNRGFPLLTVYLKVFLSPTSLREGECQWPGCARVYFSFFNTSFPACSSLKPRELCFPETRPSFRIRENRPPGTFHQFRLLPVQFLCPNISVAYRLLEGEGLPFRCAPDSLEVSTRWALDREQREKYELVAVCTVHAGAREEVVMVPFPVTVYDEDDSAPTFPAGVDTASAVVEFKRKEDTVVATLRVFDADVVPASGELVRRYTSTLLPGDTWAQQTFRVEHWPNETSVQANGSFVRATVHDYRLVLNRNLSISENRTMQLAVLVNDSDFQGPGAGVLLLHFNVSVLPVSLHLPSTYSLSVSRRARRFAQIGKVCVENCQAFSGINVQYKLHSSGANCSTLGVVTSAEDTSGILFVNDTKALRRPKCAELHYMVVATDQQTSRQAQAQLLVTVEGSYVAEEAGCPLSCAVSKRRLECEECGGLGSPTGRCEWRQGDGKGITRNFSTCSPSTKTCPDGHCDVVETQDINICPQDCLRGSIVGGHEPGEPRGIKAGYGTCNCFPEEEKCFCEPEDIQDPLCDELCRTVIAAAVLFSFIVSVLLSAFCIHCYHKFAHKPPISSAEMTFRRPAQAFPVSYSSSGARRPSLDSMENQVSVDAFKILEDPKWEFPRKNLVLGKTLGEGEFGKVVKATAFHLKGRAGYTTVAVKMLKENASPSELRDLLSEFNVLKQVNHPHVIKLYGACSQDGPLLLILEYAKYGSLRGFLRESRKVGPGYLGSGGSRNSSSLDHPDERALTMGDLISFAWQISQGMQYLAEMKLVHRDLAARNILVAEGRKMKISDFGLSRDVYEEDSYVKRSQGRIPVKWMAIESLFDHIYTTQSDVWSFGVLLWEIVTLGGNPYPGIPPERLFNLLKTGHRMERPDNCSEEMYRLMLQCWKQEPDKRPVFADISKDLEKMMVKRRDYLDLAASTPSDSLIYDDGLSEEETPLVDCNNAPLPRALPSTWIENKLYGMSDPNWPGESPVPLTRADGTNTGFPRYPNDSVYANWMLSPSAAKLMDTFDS

[12] = biological target: T3, Testis-specific serine/threonine-protein kinase 3 (Homo sapiens) (UniProt Q96PN8); settings: Compound concentration 1000.0 nM
T3 sequence (whole entry): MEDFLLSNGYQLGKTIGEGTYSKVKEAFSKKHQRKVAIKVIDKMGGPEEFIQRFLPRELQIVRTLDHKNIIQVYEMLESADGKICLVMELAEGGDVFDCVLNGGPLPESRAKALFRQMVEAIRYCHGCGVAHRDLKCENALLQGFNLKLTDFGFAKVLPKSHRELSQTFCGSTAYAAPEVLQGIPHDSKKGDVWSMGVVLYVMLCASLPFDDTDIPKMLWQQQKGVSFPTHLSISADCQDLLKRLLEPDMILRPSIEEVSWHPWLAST

Calcium/calmodulin-dependent protein kinase kinase 2 (Homo sapiens), sequence (Q96RR4 2-588 limits assumed): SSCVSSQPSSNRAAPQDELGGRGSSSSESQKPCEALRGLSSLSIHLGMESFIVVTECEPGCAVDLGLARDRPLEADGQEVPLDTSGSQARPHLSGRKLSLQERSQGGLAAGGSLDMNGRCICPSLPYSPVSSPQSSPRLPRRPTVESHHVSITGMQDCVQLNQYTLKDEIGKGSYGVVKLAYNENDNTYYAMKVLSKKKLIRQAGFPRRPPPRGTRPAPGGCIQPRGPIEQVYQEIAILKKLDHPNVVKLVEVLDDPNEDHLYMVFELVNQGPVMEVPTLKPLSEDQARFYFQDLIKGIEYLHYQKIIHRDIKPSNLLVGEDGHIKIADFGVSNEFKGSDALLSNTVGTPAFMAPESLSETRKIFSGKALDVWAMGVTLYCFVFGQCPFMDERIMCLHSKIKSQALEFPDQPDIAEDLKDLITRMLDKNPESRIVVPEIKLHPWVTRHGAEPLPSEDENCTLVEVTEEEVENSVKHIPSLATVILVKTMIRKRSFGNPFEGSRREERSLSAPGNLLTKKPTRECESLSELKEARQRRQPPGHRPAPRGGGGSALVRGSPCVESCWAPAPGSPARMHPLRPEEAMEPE

Row | SMILES | % residual kinase activity [1] [%] | % residual kinase activity [2] [%] | % residual kinase activity [3] [%] | % residual kinase activity [4] [%] | Cell Proliferation IC50 (NCI-H520) [µM] | residual activity [5] [%] | residual activity [6] [%] | residual activity [7] [%] | residual activity [8] [%] | residual activity [9] [%] | residual activity [10] [%] | residual activity [11] [%] | residual activity [12] [%]
1 | CCc1ccccc1C(=O)Nc1n[nH]c2c(C)c(F)c(C3C(C#N)=C(C)N(C)C(C)=C3C#N)cc12 [BAY-3827] | 101 | 106 | 93 | 110 | 24.1 | 88 | 84 | 72 | 100 | 100 | 83 | 25 | 100
2 | CC1=C(C#N)C(c2ccc3c(c2)c(NC(=O)c2ccccc2C)nn3C)C(C#N)=C(C)N1 [BAY-974] |  |  |  |  |  | 63 | 100 | 100 | 71 | 100 | 100 | 100 | 80
